Experimental data as given in PMC4917279 (Journal of Medicinal Chemistry, 2016).
Entries after “also recorded” stand apart in the source; their conditions may differ.

What was measured:
[1] = target: T1, EPHB3 (Homo sapiens, UniProt P54753); test: KINOMEscan; format: binding; conditions: read-out: %Ctrl @ 1000 nM
T1 construct: purchased DiscoveRx KINOMEscan

[2] = target: T2, ERK3 (Homo sapiens, UniProt Q16659); test: KINOMEscan; format: binding; conditions: read-out: %Ctrl @ 1000 nM
T2 construct: purchased DiscoveRx KINOMEscan

[3] = target: T3, SIK2 (Homo sapiens, UniProt Q9H0K1); test: KINOMEscan; format: binding; conditions: read-out: %Ctrl @ 1000 nM
T3 construct: purchased DiscoveRx KINOMEscan

[4] = target: T4, PRKCI (Homo sapiens, UniProt P41743); test: KINOMEscan; format: binding; conditions: read-out: %Ctrl @ 1000 nM
T4 construct: purchased DiscoveRx KINOMEscan
T4 sequence (P41743 whole entry): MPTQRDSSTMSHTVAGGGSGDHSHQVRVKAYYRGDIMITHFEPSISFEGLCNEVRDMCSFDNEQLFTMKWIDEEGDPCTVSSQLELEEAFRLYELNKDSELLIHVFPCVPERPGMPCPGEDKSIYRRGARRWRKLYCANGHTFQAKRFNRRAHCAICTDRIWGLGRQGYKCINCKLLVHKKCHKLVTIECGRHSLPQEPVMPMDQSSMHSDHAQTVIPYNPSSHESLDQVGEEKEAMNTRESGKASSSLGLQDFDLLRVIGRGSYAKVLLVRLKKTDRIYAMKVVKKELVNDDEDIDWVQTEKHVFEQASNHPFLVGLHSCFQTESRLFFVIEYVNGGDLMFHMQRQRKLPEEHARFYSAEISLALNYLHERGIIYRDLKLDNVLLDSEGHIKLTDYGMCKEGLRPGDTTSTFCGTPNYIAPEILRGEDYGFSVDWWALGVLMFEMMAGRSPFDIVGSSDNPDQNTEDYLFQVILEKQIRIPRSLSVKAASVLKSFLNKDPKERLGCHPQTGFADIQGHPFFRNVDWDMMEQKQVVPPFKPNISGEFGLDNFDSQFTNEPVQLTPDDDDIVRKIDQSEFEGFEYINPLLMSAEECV

[5] = target: T5, EPHB4 (Homo sapiens, UniProt P54760); test: KINOMEscan; format: binding; conditions: read-out: %Ctrl @ 1000 nM
T5 construct: purchased DiscoveRx KINOMEscan

[6] = system: FLT3(ITD); test: KINOMEscan; format: binding
[7] = target: T6, CDK3 (Homo sapiens, UniProt Q00526); test: KINOMEscan; format: binding; conditions: read-out: %Ctrl @ 1000 nM
T6 construct: purchased DiscoveRx KINOMEscan

[8] = target: T7, GSK3A (Homo sapiens, UniProt P49840); test: KINOMEscan; format: binding; conditions: read-out: %Ctrl @ 1000 nM
T7 construct: purchased DiscoveRx KINOMEscan

[9] = target: T8, MAPKAPK2 (Homo sapiens, UniProt P49137); test: KINOMEscan; format: binding; conditions: read-out: %Ctrl @ 1000 nM
T8 construct: purchased DiscoveRx KINOMEscan

[10] = target: T9, EGFR(E746-A750del) (Homo sapiens, UniProt P00533, DEL746-750); test: KINOMEscan; format: binding; conditions: read-out: %Ctrl @ 1000 nM
T9 construct: purchased DiscoveRx KINOMEscan

[11] = target: T10, ASK2 (Homo sapiens, UniProt O95382); test: KINOMEscan; format: binding; conditions: read-out: %Ctrl @ 1000 nM
T10 construct: purchased DiscoveRx KINOMEscan
T10 sequence (O95382 whole entry): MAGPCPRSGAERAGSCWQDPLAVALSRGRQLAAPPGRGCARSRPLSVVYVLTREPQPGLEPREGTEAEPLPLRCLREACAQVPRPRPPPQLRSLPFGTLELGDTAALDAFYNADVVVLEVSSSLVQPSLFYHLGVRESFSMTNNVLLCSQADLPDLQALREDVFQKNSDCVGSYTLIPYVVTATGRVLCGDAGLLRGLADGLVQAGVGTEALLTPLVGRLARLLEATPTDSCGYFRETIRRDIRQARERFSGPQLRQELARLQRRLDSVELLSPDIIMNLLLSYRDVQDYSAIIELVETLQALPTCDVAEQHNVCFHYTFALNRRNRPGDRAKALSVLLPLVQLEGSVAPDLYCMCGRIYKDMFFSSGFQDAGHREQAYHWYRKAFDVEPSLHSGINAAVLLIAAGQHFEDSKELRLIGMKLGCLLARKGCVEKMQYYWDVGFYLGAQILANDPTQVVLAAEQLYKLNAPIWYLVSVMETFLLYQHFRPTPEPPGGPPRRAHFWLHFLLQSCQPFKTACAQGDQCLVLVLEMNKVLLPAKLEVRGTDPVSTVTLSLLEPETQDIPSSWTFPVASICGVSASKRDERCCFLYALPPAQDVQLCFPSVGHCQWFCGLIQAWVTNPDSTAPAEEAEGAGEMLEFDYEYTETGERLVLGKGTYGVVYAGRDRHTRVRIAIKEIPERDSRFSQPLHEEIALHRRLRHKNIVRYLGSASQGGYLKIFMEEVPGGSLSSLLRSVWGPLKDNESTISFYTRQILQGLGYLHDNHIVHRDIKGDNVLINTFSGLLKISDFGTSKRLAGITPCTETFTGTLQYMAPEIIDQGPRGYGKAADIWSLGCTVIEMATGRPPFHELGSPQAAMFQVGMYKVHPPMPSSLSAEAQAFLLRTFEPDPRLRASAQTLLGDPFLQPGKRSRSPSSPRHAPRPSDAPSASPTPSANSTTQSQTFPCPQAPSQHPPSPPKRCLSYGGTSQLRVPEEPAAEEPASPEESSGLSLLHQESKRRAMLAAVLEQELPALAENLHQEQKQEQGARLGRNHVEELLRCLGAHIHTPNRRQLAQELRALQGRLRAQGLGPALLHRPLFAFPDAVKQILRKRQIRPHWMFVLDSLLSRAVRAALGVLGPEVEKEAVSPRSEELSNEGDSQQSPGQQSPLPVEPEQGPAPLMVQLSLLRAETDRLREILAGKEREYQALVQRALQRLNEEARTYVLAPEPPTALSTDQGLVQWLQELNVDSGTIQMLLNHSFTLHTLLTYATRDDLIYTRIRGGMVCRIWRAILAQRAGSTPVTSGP

[12] = target: T11, JAK3(JH1domain-catalytic) (Homo sapiens, UniProt P52333); test: KINOMEscan; format: binding; conditions: read-out: %Ctrl @ 1000 nM
T11 construct: JAK3(JH1domain-catalytic); purchased DiscoveRx KINOMEscan

[13] = target: T12, SRMS (Homo sapiens, UniProt Q9H3Y6); test: KINOMEscan; format: binding; conditions: read-out: %Ctrl @ 1000 nM
T12 construct: purchased DiscoveRx KINOMEscan

[14] = target: T13, SG110 (Homo sapiens, UniProt P0C264); test: KINOMEscan; format: binding; conditions: read-out: %Ctrl @ 1000 nM
T13 construct: purchased DiscoveRx KINOMEscan

[15] = target: T14, PAK6 (Homo sapiens, UniProt Q9NQU5); test: KINOMEscan; format: binding; conditions: read-out: %Ctrl @ 1000 nM
T14 construct: purchased DiscoveRx KINOMEscan

[16] = target: T15, LCK (Homo sapiens, UniProt P06239); test: KINOMEscan; format: binding; conditions: read-out: %Ctrl @ 1000 nM
T15 construct: purchased DiscoveRx KINOMEscan

[17] = target: T16, PCTK1 (Homo sapiens, UniProt Q00536); test: KINOMEscan; format: binding; conditions: read-out: %Ctrl @ 1000 nM
T16 construct: purchased DiscoveRx KINOMEscan

[18] = target: T17, p38-gamma (Homo sapiens, UniProt P53778); test: KINOMEscan; format: binding; conditions: read-out: %Ctrl @ 1000 nM
T17 construct: purchased DiscoveRx KINOMEscan
T17 sequence (P53778 whole entry): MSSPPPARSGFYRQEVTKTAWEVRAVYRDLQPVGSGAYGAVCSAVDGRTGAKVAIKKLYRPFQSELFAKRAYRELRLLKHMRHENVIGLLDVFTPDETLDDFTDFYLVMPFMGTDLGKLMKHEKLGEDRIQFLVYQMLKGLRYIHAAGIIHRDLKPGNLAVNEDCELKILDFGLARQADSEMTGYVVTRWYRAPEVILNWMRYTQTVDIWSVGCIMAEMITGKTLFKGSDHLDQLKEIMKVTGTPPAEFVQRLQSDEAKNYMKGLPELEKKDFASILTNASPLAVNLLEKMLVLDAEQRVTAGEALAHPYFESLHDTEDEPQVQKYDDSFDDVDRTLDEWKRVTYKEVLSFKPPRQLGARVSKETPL

[19] = target: T18, MEK1 (Homo sapiens, UniProt Q02750); test: KINOMEscan; format: binding; conditions: read-out: %Ctrl @ 1000 nM
T18 construct: purchased DiscoveRx KINOMEscan
T18 sequence (Q02750 whole entry): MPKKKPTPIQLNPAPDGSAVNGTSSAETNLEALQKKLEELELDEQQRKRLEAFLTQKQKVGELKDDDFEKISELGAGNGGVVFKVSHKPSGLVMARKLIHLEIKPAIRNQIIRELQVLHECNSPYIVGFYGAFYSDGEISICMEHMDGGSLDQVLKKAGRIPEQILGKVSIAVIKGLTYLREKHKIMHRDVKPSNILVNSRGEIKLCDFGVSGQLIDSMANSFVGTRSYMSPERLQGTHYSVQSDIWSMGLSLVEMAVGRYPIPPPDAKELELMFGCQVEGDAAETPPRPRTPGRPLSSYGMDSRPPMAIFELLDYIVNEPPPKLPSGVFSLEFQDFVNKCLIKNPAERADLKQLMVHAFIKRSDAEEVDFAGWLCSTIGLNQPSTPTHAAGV

[20] = target: T19, CDK4-cyclinD3 (Homo sapiens, UniProt P11802); test: KINOMEscan; format: binding; conditions: read-out: %Ctrl @ 1000 nM
T19 construct: purchased DiscoveRx KINOMEscan

[21] = target: T20, CAMK4 (Homo sapiens, UniProt Q16566); test: KINOMEscan; format: binding; conditions: read-out: %Ctrl @ 1000 nM
T20 construct: purchased DiscoveRx KINOMEscan

[22] = target: SMYD2 (Homo sapiens, UniProt Q9NRG4); test: AHNAK methylation Western blot in MDA-MB231 cells overexpressing SMYD2; format: cell-based; design: expressed in transfected cells
Sequence of SMYD2 (Q9NRG4 whole entry): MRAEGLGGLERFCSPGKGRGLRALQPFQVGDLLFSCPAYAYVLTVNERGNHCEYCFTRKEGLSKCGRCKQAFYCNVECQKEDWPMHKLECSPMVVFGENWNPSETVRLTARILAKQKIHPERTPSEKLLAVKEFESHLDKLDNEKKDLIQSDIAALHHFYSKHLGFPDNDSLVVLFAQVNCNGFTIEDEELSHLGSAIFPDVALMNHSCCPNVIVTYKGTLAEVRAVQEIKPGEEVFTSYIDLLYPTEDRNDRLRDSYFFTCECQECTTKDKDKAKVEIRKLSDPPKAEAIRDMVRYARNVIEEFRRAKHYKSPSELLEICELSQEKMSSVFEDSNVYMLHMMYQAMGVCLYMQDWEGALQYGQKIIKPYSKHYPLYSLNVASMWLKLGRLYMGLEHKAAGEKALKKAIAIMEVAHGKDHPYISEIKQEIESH

[23] = target: T21, INSRR (Homo sapiens, UniProt P14616); test: KINOMEscan; format: binding; conditions: read-out: %Ctrl @ 1000 nM
T21 construct: purchased DiscoveRx KINOMEscan

[24] = target: T22, ERBB4 (Homo sapiens, UniProt Q15303); test: KINOMEscan; format: binding; conditions: read-out: %Ctrl @ 1000 nM
T22 construct: purchased DiscoveRx KINOMEscan

[25] = target: T23, NIM1 (Homo sapiens, UniProt Q8IY84); test: KINOMEscan; format: binding; conditions: read-out: %Ctrl @ 1000 nM
T23 construct: purchased DiscoveRx KINOMEscan

[26] = target: T24, IRAK3 (Homo sapiens, UniProt Q9Y616); test: KINOMEscan; format: binding; conditions: read-out: %Ctrl @ 1000 nM
T24 construct: purchased DiscoveRx KINOMEscan
T24 sequence (Q9Y616 whole entry): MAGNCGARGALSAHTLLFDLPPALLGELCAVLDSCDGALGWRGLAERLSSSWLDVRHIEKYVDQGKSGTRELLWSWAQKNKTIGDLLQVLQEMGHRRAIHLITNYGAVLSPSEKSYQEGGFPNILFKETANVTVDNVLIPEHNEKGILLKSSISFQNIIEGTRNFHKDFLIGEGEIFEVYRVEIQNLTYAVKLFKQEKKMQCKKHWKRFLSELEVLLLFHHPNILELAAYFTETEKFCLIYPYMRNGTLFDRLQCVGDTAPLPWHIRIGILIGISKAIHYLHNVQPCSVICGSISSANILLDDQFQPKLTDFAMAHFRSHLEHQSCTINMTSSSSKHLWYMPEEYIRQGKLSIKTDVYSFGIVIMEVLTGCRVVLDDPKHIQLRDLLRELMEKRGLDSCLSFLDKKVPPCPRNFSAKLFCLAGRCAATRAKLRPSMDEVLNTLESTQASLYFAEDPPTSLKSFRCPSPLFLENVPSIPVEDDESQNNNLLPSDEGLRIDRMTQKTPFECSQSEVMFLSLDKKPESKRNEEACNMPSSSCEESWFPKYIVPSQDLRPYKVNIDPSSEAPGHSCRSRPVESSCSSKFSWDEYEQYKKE

[27] = target: T25, PCTK3 (Homo sapiens, UniProt Q07002); test: KINOMEscan; format: binding; conditions: read-out: %Ctrl @ 1000 nM
T25 construct: purchased DiscoveRx KINOMEscan

[28] = target: T26, CSNK1G3 (Homo sapiens, UniProt Q9Y6M4); test: KINOMEscan; format: binding; conditions: read-out: %Ctrl @ 1000 nM
T26 construct: purchased DiscoveRx KINOMEscan

[29] = Caco2 drug permeability assay; format: in vitro ADME; conditions: human, Caco-2, pH 7.2
Experimental: Caco-2 cells (purchased from DSMZ Braunschweig, Germany) were seeded at a density of 4.5 × 10^4 cell per well on 24-well insert plates, 0.4 μm pore size, and grown for 15 days in DMEM medium supplemented with 10% fetal bovine serum, 1% GlutaMAX (100×, GIBCO), 100 μg/mL penicillin, 100 μg/mL streptomycin (GIBCO), and 1% nonessential amino acids (100×). Cells were maintained at 37 °C in a humified 5% CO2 atmosphere. Medium was changed every second to third day. Before running the permeation assay, the culture medium was replaced by an FCS-free Hepes-carbonate transport buffer (pH 7.2). For assessment of monolayer integrity, the transepithelial electrical resistance (TEER) was measured. Test compounds were dissolved in DMSO and added either to the apical or basolateral compartment in a final concentration of 2 μM. Before and after incubation at 37 °C, samples were taken from both compartments. Analysis of compound content was performed following precipitation with methanol and LC/MS/MS analysis. Permeability (Papp) was calculated in the apical to basolateral (A → B) and basolateral to apical (B → A) directions. The apparent permeability was calculated using following equation: [drawing 3] where Vr = volume of medium in the receiver chamber, P0 = measured peak area of the test drug in the donor chamber at t = 0, S = surface area of the monolayer, P2 = measured peak area of the test drug in the acceptor chamber after incubation for 2 h, and t = incubation time. The efflux ratio basolateral (B) to apical (A) was calculated by dividing Papp (B–A) by Papp (A–B). In addition, the compound recovery was calculated. Reference compounds were analyzed in parallel as assay controls. All samples were analyzed by LC/MS/MS.

[30] = target: T27, SNARK (Homo sapiens, UniProt Q9H093); test: KINOMEscan; format: binding; conditions: read-out: %Ctrl @ 1000 nM
T27 construct: purchased DiscoveRx KINOMEscan

[31] = target: T28, EGFR(L747-S752del, P753S) (Homo sapiens, UniProt P00533, DEL747-752/P753S); test: KINOMEscan; format: binding; conditions: read-out: %Ctrl @ 1000 nM
T28 construct: purchased DiscoveRx KINOMEscan
T28 sequence (P00533 with tags, fused parts or gaps DEL747-752/P753S limits assumed): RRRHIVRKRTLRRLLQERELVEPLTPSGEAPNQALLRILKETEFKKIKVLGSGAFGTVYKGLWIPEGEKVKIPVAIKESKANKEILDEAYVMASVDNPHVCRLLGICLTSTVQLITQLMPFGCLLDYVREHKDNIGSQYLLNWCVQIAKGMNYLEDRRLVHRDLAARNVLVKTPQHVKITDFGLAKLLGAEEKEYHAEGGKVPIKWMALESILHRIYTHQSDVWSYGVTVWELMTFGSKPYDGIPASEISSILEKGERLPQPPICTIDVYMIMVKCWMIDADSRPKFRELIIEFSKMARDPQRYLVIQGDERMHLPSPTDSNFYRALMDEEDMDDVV

[32] = target: T29, NEK9 (Homo sapiens, UniProt Q8TD19); test: KINOMEscan; format: binding; conditions: read-out: %Ctrl @ 1000 nM
T29 construct: purchased DiscoveRx KINOMEscan
T29 sequence (Q8TD19 whole entry): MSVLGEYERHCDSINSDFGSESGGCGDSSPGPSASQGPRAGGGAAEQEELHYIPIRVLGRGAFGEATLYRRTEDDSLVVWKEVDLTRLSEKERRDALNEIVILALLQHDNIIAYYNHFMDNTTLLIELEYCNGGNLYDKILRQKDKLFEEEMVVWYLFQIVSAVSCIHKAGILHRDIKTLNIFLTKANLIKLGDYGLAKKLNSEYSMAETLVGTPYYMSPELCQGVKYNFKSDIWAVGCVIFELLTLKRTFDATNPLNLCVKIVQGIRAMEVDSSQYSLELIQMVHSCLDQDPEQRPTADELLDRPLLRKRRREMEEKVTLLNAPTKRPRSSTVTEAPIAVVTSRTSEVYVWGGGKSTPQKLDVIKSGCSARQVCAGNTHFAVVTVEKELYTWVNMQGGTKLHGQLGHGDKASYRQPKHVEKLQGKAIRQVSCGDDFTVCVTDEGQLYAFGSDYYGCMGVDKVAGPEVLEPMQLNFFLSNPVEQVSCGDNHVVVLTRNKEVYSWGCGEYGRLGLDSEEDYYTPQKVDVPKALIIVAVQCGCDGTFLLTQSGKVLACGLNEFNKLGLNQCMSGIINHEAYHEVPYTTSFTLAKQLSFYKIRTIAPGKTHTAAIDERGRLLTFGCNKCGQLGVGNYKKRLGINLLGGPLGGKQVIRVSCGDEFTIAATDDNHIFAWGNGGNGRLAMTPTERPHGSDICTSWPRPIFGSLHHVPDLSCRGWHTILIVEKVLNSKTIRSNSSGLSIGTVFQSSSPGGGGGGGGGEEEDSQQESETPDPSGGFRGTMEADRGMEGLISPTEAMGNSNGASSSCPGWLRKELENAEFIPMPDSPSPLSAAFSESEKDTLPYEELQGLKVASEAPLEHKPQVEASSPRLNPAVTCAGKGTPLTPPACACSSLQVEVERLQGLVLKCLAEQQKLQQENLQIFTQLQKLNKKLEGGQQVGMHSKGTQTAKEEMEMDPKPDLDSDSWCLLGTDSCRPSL

[33] = target: T30, ITK (Homo sapiens, UniProt Q08881); test: KINOMEscan; format: binding; conditions: read-out: %Ctrl @ 1000 nM
T30 construct: purchased DiscoveRx KINOMEscan

CCN(C(=O)CO)[C@H]1CN(/C(=N\C#N)Nc2cccc(OC(F)F)c2)N=C1c1ccc(Cl)c(Cl)c1 [(S)-4]
remaining binding at 1 µM [1]: 99% | remaining binding at 1 µM [2]: 77% | remaining binding at 1 µM [3]: 99% | remaining binding at 1 µM [4]: 63% | remaining binding at 1 µM [5]: 97% | %Ctrl @ 1000 nM [6]: 91% | remaining binding at 1 µM [7]: 91% | remaining binding at 1 µM [8]: 88% | remaining binding at 1 µM [9]: 91% | remaining binding at 1 µM [10]: 66% | remaining binding at 1 µM [11]: 93% | remaining binding at 1 µM [12]: 48% | remaining binding at 1 µM [13]: 94% | remaining binding at 1 µM [14]: 92% | remaining binding at 1 µM [15]: 100% | remaining binding at 1 µM [16]: 66% | remaining binding at 1 µM [17]: 98% | remaining binding at 1 µM [18]: 70% | remaining binding at 1 µM [19]: 98% | remaining binding at 1 µM [20]: 100% | remaining binding at 1 µM [21]: 82% | AHNAK methylation (Western blot) [22]: specifically reduced methylation of AHNAK; also recorded: inhibits concentration dependent | remaining binding at 1 µM [23]: 85% | remaining binding at 1 µM [24]: 93% | remaining binding at 1 µM [25]: 100% | remaining binding at 1 µM [26]: 93% | remaining binding at 1 µM [27]: 92% | remaining binding at 1 µM [28]: 79% | Papp A→B at 2 h, 2 µM [29]: 3.4 ×10⁻⁶ cm/s | remaining binding at 1 µM [30]: 100% | remaining binding at 1 µM [31]: 86% | remaining binding at 1 µM [32]: 100% | remaining binding at 1 µM [33]: 94%
